From article PMC7292537, “BGAL1 depletion boosts the level of β‐galactosylation of N‐ and O‐glycans in N. benthamiana” (Plant Biotechnology Journal, 2020)

System: T1, NbBGAL1 (SPα-BGAL1)
T1 construct: mature residues 25-846 (GH35 + Gal-lectin domain), own signal peptide replaced by barley alpha-amylase signal peptide, C-terminal StrepII tag (WSHPQFEK); transiently expressed in N. benthamiana, apoplastic fluid not purified; 95 kDa full length plus 48 kDa GH35 and 38 kDa truncated forms; precursor 846 aa
Test: fluorescein release, Hanes-Woolf and Lineweaver-Burk
Assay type: biochemical, Nicotiana benthamiana
Conditions: read-out: apparent KM; apoplastic fluid with overexpressed enzyme; 50 mM MES pH 5.0, 25 °C, 1 h; FDG 0-250 µM (printed unit mM doubtful, perhaps µM); unit of the source corrected; heading: apparent KM

Km: 0.0298 mM
Structure (SMILES): O=C1OC2(c3ccc(O[C@@H]4O[C@H](CO)[C@H](O)[C@H](O)[C@H]4O)cc3Oc3cc(O[C@@H]4O[C@H](CO)[C@H](O)[C@H](O)[C@H]4O)ccc32)c2ccccc21 [FDG, fluorescein di-β-D-galactopyranoside]
